The nature of data set [1]: mouse brain protein binding (BPB) assay. Format: in vitro ADME. The procedure:
(§1) We have adapted a previously reported cyclooxygenase enzymatic assay utilizing LCMS quantification of PGE2 as the product of COX-1 and COX2 catalyzed conversion of arachidonic acid to evaluate the binding properties of newly synthesized ligands [Cao, 2011]. These optimized and miniaturized (384-well plates) LCMS-based COX-1 and COX2 enzymatic assays enabled us to quickly evaluate newly synthesized ligands for COX2 binding affinity and selectivity vs COX-1. Using a shorter ligand-enzyme incubation time in the LCMS assay (2 minutes vs 10 minutes) also permitted us to prioritize ligands with faster binding kinetics. Considering the relatively slow on-rate kinetics of known coxibs, due to their 3-step binding mechanism [Marnett, 2009], we believe that optimizing this critical parameter will be key to the successful development of a COX2 PET tracer. Using these enzymatic assays, we have evaluated>200 newly synthesized ligands against COX2 and >20 ligands against COX-1. Another critical property necessary for a good PET radiotracer is to have low non-specific binding (NSB) to increase the free fraction and maximize the signal to noise ratio. This property can be evaluated using in-vitro protein binding assays, and we have now evaluated>50 newly synthesized ligands in mouse, rat and human plasma protein binding (PPB) assays as well as >15 ligands in a mouse brain protein binding (BPB) assay.

Data set [2] in a line: Rat Microsome Stability. It counts as in vitro ADME. The following applies: rat microsomes.
Data set [3] is described as follows: Human Plasma Protein Stability (% Remaining). Format: in vitro ADME. The following applies: average.
The nature of data set [4]: in-vitro protein binding: free fraction / fraction unbound, matrix and species not given. Format: in vitro ADME. Particulars: compared to MC1; comparator not always stated. As to the method:
as §1

Data set [5] has as its system MDR1. Kind of data set: MDR1-MDCKII permeability and efflux. Format: in vitro ADME. Particulars: dog, MDCK-MDR1.
Data set [6] in a line: mouse plasma protein binding (PPB) assay. Particulars: average, read-out: Mouse Plasma Protein Binding % Bound Avg (converted). Format: in vitro ADME. The essentials: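 Ligands are incubated in vitro with mouse, rat or human plasma, or with mouse brain, and the fraction remaining free is determined.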
Data set [7] concerns the target T1, ovine COX-1 (oCOX-1) (Ovis aries, UniProt P05979).
T1 construct: purchased Cayman Chemicals (Ann Arbor, Mich.)
T1 sequence (P05979 25-600): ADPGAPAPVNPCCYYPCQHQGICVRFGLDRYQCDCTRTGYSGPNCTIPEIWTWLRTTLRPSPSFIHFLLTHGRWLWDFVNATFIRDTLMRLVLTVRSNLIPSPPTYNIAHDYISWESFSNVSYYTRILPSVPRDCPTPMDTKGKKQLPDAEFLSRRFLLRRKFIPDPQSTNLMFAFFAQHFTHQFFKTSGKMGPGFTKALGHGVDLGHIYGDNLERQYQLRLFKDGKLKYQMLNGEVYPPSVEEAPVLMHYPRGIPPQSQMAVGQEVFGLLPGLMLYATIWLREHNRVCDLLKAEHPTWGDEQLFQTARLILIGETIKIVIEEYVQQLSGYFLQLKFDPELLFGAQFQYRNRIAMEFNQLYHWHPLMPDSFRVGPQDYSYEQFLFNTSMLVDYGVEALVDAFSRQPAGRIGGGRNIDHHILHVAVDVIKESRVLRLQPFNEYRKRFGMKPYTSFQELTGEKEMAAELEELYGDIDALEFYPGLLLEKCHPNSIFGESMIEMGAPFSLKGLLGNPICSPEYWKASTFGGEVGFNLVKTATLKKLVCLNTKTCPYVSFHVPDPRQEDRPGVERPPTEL
Kind of data set: LCMS-based COX-1 enzymatic inhibition assay (PGE2 quantification). Format: biochemical. The following applies: 10 minutes, readout pge2/pge2d4 area ratio. The essentials:
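Ovine COX-1 (0.1 μg) or human recombinant COX2 (0.2 μg) in 100 mM Tris.HCl pH 8.0 with hematin and epinephrine, preincubated with inhibitor 10 min at 37 °C. Reaction with 5 μM arachidonic acid stopped after 2 min with HCl; PGE2 quantified by LC-MS-MS. IC50 from 12 concentrations in triplicate.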

In the case of `CS(=O)(=O)c1ccc(-c2cccc(NCc3ccoc3)n2)cc1` [Compound 47, N-(furan-3-ylmethyl)-6-(4-(methylsulfonyl)phenyl)pyridin-2-amine], the fraction unbound is 0.022 in data set [1] and 0.07 in data set [6]. Besides, the “Rat Microsome Stability % Remaining Avg” value in data set [2] came to 8.2%. Further, the “Human Plasma Protein Stability % Remaining Avg” value in data set [3] was found to be 102.5%. Also, the “improvement in free fraction (fraction unbound)” value in data set [4] was about 4 fold. Also, the efflux ratio in data set [5] was found to be 0.9. The Papp A→B in data set [5] (A-B, read-out: MDR1-MCKII Papp A-B) was 50.8 ×10⁻⁶ cm/s. The apparent permeability from basolateral to apical (Papp B→A) in data set [5] (B-A, read-out: MDR1-MCKII Papp B-A) came to 47.2 ×10⁻⁶ cm/s. Besides, the “COX1 10 minutes pge2/pge2d4 area ratio Avg. LLE” value in data set [7] (average LLE) amounted to 1.461. Further, the IC50 in data set [7] (average, read-out: COX1 10 minutes pge2/pge2d4 area ratio Avg. IC50) came to 38.8 µM.

By efflux ratio is commonly meant the permeability from basolateral to apical divided by that in the opposite direction, in the common usage. The Papp A→B is the apparent permeability from the apical to the basolateral side of a cell layer. By Papp B→A is commonly meant the apparent permeability from the basolateral to the apical side of a cell layer.
